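These data come from cells grown in 96-well plates and exposed to compound for 48 hours at five concentrations. Abbreviation: GI50, concentration required for 50% inhibition of growth. TGI: concentration producing complete growth inhibition.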
Legend:
Assay in all cases: NCI tumour cell line growth inhibition, 48 h
M19-MEL melanoma = system: M19-MEL melanoma
KM20L2 colon = system: KM20L2 colon
RXF-631 renal = system: RXF-631 renal
LXFL 529 NSCLC = system: LXFL 529 NSCLC
XF 498 CNS = system: XF 498 CNS
DMS 273 small cell lung = system: DMS 273 small cell lung
DLD-1 colon = system: DLD-1 colon
P388 leukemia = system: P388 leukemia
SN12K1 renal = system: SN12K1 renal
P388/ADR leukemia = system: P388/ADR leukemia

SMILES	TGI (M19-MEL melanoma)	TGI (KM20L2 colon)	TGI (RXF-631 renal)	TGI (LXFL 529 NSCLC)	TGI (XF 498 CNS)	TGI (DMS 273 small cell lung)	TGI (DLD-1 colon)	TGI (P388 leukemia)	TGI (SN12K1 renal)	TGI (P388/ADR leukemia)	GI50 (KM20L2 colon)
COc1ccc(N=Cc2ccc(N(CCC#N)S(=O)(=O)c3ccccc3)cc2C)cc1	> 100 µM	> 100 µM	> 100 µM	> 100 µM	> 100 µM						
COc1cc(C2C(=O)C(Cl)N2Nc2nc(C)cc(=O)[nH]2)cc(OC)c1OC (configuration not stated)	> 100 µM	66.5 µM		29.7 µM		24.2 µM					
COc1cccc(NC(=O)CC(=O)NN2C(=O)/C(=C/c3ccc(N(CCC#N)CCC#N)cc3)N=C2c2cc([N+](=O)[O-])ccc2Cl)c1	> 100 µM	> 100 µM	> 100 µM	> 100 µM	> 100 µM	> 100 µM	> 100 µM				
COc1ccc(N=Nc2c(N)nn(C)c2N)cc1	> 100 µM	> 100 µM	> 100 µM	> 100 µM		> 100 µM	> 100 µM				
CCCCCCCCCCCCSC(=S)c1c(C)[nH]n(CCCCCCCCCCCC)c1=O	> 100 µM	> 100 µM	> 100 µM	> 100 µM			> 100 µM				
O=C(CSSCC(=O)OCCS(=O)(=O)Nc1ccc(Br)cc1)OCCS(=O)(=O)Nc1ccc(Br)cc1	56.4 µM	> 100 µM		34.1 µM		40.3 µM	> 100 µM				
CCCCCCCCCCCCCCCCCC(=O)OCC1OC(OC)C(NC(=O)N(CCCl)N=O)C(O)C1O (configuration not stated)	> 100 µM			37.5 µM	44 µM	56.9 µM	> 100 µM				
Cc1ccc(C(=O)Nc2ncn(C3CC(O)C(CO)O3)c(=O)n2)cc1 (configuration not stated)	> 100 µM				> 100 µM	> 100 µM	> 100 µM	> 100 µM	> 100 µM	29.5 µM	
O=C([CH-]C(=O)c1ccccc1)c1ccccc1.O=C([CH-]C(=O)c1ccccc1)c1ccccc1.O=C([CH-]C(=O)c1ccccc1)c1ccccc1.[Cl-].[Hf+4]		> 100 µM									34.2 µM
CCN(CCO)CCNc1ccc(C)c2sc3ccccc3c(=O)c12	3.63 µM	7.27 µM		10.4 µM	10 µM	6.94 µM	14.2 µM				

— PubChem BioAssay (NCI)
